# According to US20200354426A1 (MEDIMMUNE LIMITED, priority 2016, published 2020):
# Numbered stars: 1 amine (or outer) side, 2 acyl side, 3 side chain; on linkers, the order of the positions; unused ones are H or OH. Side chains are listed from the residue outwards. Peptide text beside a SMILES is read from it. * marks the point of attachment. γGlu = O=C(O)[C@H](CCC(=O)[*:2])N[*:1]; Palmitoyl = CCCCCCCCCCCCCCCC(=O)*; Ahx = NCCCCCC(=O)O; βAla = NCCC(=O)O
# Assays:
# Assay in all cases: cAMP activity assay in assay medium (assay 1)
# Format in all cases: cell-based
# [1] = biological target: T1, Human GlucR (Homo sapiens, UniProt P47871); details: assay medium; Table 4; read-out: hGlucR EC50
# T1 construct: expressed in transfected cells
# Text: (§1) Biological Activity of Peptides in Cell-Based cAMP Activity Assay (Assay 1):
# (§2) All sample dilutions were made in duplicate.
# [2] = biological target: T2, Human GIPr (Homo sapiens, UniProt P48546); details: assay medium; Table 4; read-out: hGIPR EC50
# T2 construct: expressed in transfected cells
# T2 sequence (P48546 22-466): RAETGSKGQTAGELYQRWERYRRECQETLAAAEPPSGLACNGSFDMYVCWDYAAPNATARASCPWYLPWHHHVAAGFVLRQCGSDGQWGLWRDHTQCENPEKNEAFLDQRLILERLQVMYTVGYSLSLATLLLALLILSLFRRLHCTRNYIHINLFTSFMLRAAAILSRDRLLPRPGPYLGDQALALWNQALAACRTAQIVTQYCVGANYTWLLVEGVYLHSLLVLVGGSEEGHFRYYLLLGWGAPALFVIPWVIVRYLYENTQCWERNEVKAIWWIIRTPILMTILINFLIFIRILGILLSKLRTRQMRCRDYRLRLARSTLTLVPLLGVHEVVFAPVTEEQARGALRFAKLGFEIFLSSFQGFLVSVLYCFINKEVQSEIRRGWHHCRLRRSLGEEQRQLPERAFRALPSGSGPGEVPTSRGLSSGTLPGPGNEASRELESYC
# Text: as §1, §2
# [3] = biological target: Human GLP1R (Homo sapiens, UniProt P43220); design: expressed in transfected cells; details: assay medium; Table 4; read-out: hGLP1R EC50
# Text: as §1, §2
# T1 sequence (P47871 26-477): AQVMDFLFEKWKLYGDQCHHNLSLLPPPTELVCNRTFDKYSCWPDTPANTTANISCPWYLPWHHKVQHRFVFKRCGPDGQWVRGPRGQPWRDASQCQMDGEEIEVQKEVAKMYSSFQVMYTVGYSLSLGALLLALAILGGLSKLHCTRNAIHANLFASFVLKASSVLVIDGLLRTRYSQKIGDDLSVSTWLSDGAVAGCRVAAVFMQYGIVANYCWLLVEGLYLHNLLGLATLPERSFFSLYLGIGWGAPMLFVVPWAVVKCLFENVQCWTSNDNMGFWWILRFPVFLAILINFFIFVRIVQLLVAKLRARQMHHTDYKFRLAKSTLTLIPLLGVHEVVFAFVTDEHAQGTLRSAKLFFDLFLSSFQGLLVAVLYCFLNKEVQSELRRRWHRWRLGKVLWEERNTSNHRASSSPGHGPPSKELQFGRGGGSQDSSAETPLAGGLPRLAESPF
# Human GLP1R, sequence (P43220 24-463): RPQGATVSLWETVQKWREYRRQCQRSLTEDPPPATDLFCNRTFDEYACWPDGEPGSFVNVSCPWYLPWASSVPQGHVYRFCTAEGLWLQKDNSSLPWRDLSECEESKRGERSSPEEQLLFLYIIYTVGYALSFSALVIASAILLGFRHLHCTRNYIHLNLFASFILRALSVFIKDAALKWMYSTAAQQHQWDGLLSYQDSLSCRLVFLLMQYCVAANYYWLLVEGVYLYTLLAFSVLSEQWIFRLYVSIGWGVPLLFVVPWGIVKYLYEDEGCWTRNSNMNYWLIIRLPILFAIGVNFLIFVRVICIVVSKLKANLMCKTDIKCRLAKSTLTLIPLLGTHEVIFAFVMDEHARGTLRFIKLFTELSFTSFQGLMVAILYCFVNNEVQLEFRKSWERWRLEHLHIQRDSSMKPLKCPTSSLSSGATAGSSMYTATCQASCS
SMILES,EC50 [1] [nM],EC50 [2] [nM],EC50 [3] [nM]
CCCCCCCCCCCCCCCC(=O)N[C@@H](CCC(=O)NCCCC[C@H](NC(=O)[C@H](CCCNC(=N)N)NC(=O)[C@H](CO)NC(=O)[C@H](CC(=O)O)NC(=O)[C@H](CC(C)C)NC(=O)[C@H](Cc1ccc(O)cc1)NC(=O)[C@H](CCCCN)NC(=O)[C@H](CO)NC(=O)[C@H](Cc1ccc(O)cc1)NC(=O)[C@H](CC(=O)O)NC(=O)[C@H](CO)NC(=O)[C@@H](NC(=O)[C@H](Cc1ccccc1)NC(=O)[C@@H](NC(=O)CNC(=O)[C@H](CCC(N)=O)NC(=O)[C@H](CO)NC(=O)[C@@H](N)Cc1c[nH]cn1)[C@@H](C)O)[C@@H](C)O)C(=O)N[C@@H](C)C(=O)N[C@@H](CCCNC(=N)N)C(=O)N[C@@H](CC(=O)O)C(=O)N[C@@H](Cc1ccccc1)C(=O)N[C@H](C(=O)N[C@@H](C)C(=O)N[C@@H](Cc1c[nH]c2ccccc12)C(=O)N[C@@H](CC(C)C)C(=O)N[C@@H](CCC(=O)O)C(=O)N[C@@H](C)C(=O)NCC(=O)NCC(N)=O)C(C)C)C(=O)O [g782] (H-HSQGTFTSDYSKYLDSRK([γGlu-Palmitoyl])ARDFVAWLEAGG-NH2; N-terminus assumed),0.156,1430,0.0254
CCCCCCCCCCCCCCCC(=O)NCCC(=O)NCCCC[C@H](NC(=O)[C@H](CO)NC(=O)[C@H](CC(=O)O)NC(=O)[C@H](CC(C)C)NC(=O)[C@H](Cc1ccc(O)cc1)NC(=O)[C@H](CCC(=O)O)NC(=O)[C@H](CO)NC(=O)[C@H](Cc1ccc(O)cc1)NC(=O)[C@H](CC(=O)O)NC(=O)[C@H](CO)NC(=O)[C@@H](NC(=O)[C@H](Cc1ccccc1)NC(=O)[C@@H](NC(=O)CNC(=O)[C@H](CCC(N)=O)NC(=O)[C@H](CO)NC(=O)[C@@H](N)Cc1c[nH]cn1)[C@@H](C)O)[C@@H](C)O)C(=O)N[C@@H](CCCNC(=N)N)C(=O)N[C@@H](C)C(=O)N[C@@H](CCCNC(=N)N)C(=O)N[C@@H](CC(=O)O)C(=O)N[C@@H](Cc1ccccc1)C(=O)N[C@H](C(=O)N[C@@H](C)C(=O)N[C@@H](Cc1c[nH]c2ccccc12)C(=O)N[C@@H](CC(C)C)C(=O)N[C@@H](CCC(=O)O)C(=O)N[C@@H](C)C(=O)NCC(=O)NCC(N)=O)C(C)C [g783] (H-HSQGTFTSDYSEYLDSK([βAla-Palmitoyl])RARDFVAWLEAGG-NH2; N-terminus assumed),0.0911,846,0.0424
CCCCCCCCCCCCCCCC(=O)NCCCCCC(=O)NCCCC[C@H](NC(=O)[C@H](CO)NC(=O)[C@H](CC(=O)O)NC(=O)[C@H](CC(C)C)NC(=O)[C@H](Cc1ccc(O)cc1)NC(=O)[C@H](CCC(=O)O)NC(=O)[C@H](CO)NC(=O)[C@H](Cc1ccc(O)cc1)NC(=O)[C@H](CC(=O)O)NC(=O)[C@H](CO)NC(=O)[C@@H](NC(=O)[C@H](Cc1ccccc1)NC(=O)[C@@H](NC(=O)CNC(=O)[C@H](CCC(N)=O)NC(=O)[C@H](CO)NC(=O)[C@@H](N)Cc1c[nH]cn1)[C@@H](C)O)[C@@H](C)O)C(=O)N[C@@H](CCCNC(=N)N)C(=O)N[C@@H](C)C(=O)N[C@@H](CCCNC(=N)N)C(=O)N[C@@H](CC(=O)O)C(=O)N[C@@H](Cc1ccccc1)C(=O)N[C@H](C(=O)N[C@@H](C)C(=O)N[C@@H](Cc1c[nH]c2ccccc12)C(=O)N[C@@H](CC(C)C)C(=O)N[C@@H](CCC(=O)O)C(=O)N[C@@H](CCCNC(=N)N)C(=O)NCC(=O)NCC(N)=O)C(C)C [g794] (H-HSQGTFTSDYSEYLDSK([Ahx-Palmitoyl])RARDFVAWLERGG-NH2; N-terminus assumed),0.00469,32.2,0.0157
CCCCCCCCCCCCCCCC(=O)NCCC(=O)NCCCC[C@H](NC(=O)[C@H](CO)NC(=O)[C@H](CC(=O)O)NC(=O)[C@H](CC(C)C)NC(=O)[C@H](Cc1ccc(O)cc1)NC(=O)[C@H](CCC(=O)O)NC(=O)[C@H](CO)NC(=O)[C@H](Cc1ccc(O)cc1)NC(=O)[C@H](CC(=O)O)NC(=O)[C@H](CO)NC(=O)[C@@H](NC(=O)[C@H](Cc1ccccc1)NC(=O)[C@@H](NC(=O)CNC(=O)[C@H](CCC(N)=O)NC(=O)[C@H](CO)NC(=O)[C@@H](N)Cc1c[nH]cn1)[C@@H](C)O)[C@@H](C)O)C(=O)N[C@@H](CCCNC(=N)N)C(=O)N[C@@H](C)C(=O)N[C@@H](CCCNC(=N)N)C(=O)N[C@@H](CC(=O)O)C(=O)N[C@@H](Cc1ccccc1)C(=O)N[C@H](C(=O)N[C@@H](C)C(=O)N[C@@H](Cc1c[nH]c2ccccc12)C(=O)N[C@@H](CC(C)C)C(=O)N[C@@H](CCC(=O)O)C(=O)N[C@@H](CCCNC(=N)N)C(=O)NCC(=O)NCC(N)=O)C(C)C [g795] (H-HSQGTFTSDYSEYLDSK([βAla-Palmitoyl])RARDFVAWLERGG-NH2; N-terminus assumed),0.11,579,0.0734
CCCCCCCCCCCCCCCC(=O)N[C@@H](CCC(=O)NCCCC[C@H](NC(=O)[C@H](CCC(=O)O)NC(=O)[C@H](CO)NC(=O)[C@H](Cc1ccc(O)cc1)NC(=O)[C@H](CC(=O)O)NC(=O)[C@H](CO)NC(=O)[C@@H](NC(=O)[C@H](Cc1ccccc1)NC(=O)[C@@H](NC(=O)CNC(=O)[C@H](CCC(N)=O)NC(=O)[C@H](CO)NC(=O)[C@@H](N)Cc1c[nH]cn1)[C@@H](C)O)[C@@H](C)O)C(=O)N[C@@H](CC(C)C)C(=O)N[C@@H](CC(=O)O)C(=O)N[C@@H](CO)C(=O)N[C@@H](CCC(=O)O)C(=O)N[C@@H](CCCNC(=N)N)C(=O)N[C@@H](C)C(=O)N[C@@H](CCCNC(=N)N)C(=O)N[C@@H](CC(=O)O)C(=O)N[C@@H](Cc1ccccc1)C(=O)N[C@H](C(=O)N[C@@H](C)C(=O)N[C@@H](Cc1c[nH]c2ccccc12)C(=O)N[C@@H](CC(C)C)C(=O)N[C@H](C(=O)N[C@@H](C)C(=O)NCC(=O)NCC(N)=O)C(C)C)C(C)C)C(=O)O [g802] (H-HSQGTFTSDYSEK([γGlu-Palmitoyl])LDSERARDFVAWLVAGG-NH2; N-terminus assumed),1.81,91.2,0.0964
CCCCCCCCCCCCCCCC(=O)N[C@@H](CCC(=O)NCCCC[C@H](NC(=O)[C@H](Cc1ccc(O)cc1)NC(=O)[C@H](CCCCN)NC(=O)[C@H](CO)NC(=O)[C@H](Cc1ccc(O)cc1)NC(=O)[C@H](CC(=O)O)NC(=O)[C@H](CO)NC(=O)[C@@H](NC(=O)[C@H](Cc1ccccc1)NC(=O)[C@@H](NC(=O)CNC(=O)[C@H](CCC(N)=O)NC(=O)[C@H](CO)NC(=O)[C@@H](N)Cc1c[nH]cn1)[C@@H](C)O)[C@@H](C)O)C(=O)N[C@@H](CC(=O)O)C(=O)N[C@@H](CO)C(=O)N[C@@H](CCCNC(=N)N)C(=O)N[C@@H](CO)C(=O)N[C@@H](C)C(=O)N[C@@H](CCCNC(=N)N)C(=O)N[C@@H](CC(=O)O)C(=O)N[C@@H](Cc1ccccc1)C(=O)N[C@H](C(=O)N[C@@H](CCC(=O)O)C(=O)N[C@@H](Cc1c[nH]c2ccccc12)C(=O)N[C@@H](CC(C)C)C(=O)N[C@H](C(=O)N[C@@H](C)C(=O)NCC(=O)NCC(N)=O)C(C)C)C(C)C)C(=O)O [g803] (H-HSQGTFTSDYSKYK([γGlu-Palmitoyl])DSRSARDFVEWLVAGG-NH2; N-terminus assumed),0.0108,32.9,0.0296
